Measured values reported in the NIST ThermoML archive (doi:10.1021/je0503204).

Details: Liquid; for speed of sound: Pulse-echo method

CCCCCCCl [1-chlorohexane]
Details	mass density [kg/m3]	speed of sound [m/s]
293.15 K, 100 kPa	878.5	1219.1
293.15 K, 5000 kPa	884.2	1240.5
293.15 K, 9910 kPa	887	1264.5
293.15 K, 19720 kPa	894.7	1310
293.15 K, 29530 kPa	901.8	1352.6
293.15 K, 39340 kPa	908.4	1392.6
293.15 K, 49150 kPa	914.6	1430.1
293.15 K, 58960 kPa	920.4	1465.7
293.15 K, 68770 kPa	925.9	1499.3
293.15 K, 78580 kPa	931.1	1531.5
293.15 K, 88390 kPa	936	1562.3
293.15 K, 98200 kPa	940.7	1591.9
293.15 K, 108000 kPa	945.1	1620.6
293.15 K, 117800 kPa	949.4	1648.2
293.15 K, 127600 kPa	953.4	1675.2
293.15 K, 137400 kPa	957.3	1701.5
293.15 K, 147200 kPa	961.1	1727.1
293.15 K, 157100 kPa	964.7	1752.2
293.15 K, 166900 kPa	968.1	1776.7
293.15 K, 176700 kPa	971.5	1800.6
293.15 K, 186500 kPa	974.7	1824
293.15 K, 196300 kPa	977.9	1846.5
313.15 K, 100 kPa	859.4	1140.7
313.15 K, 5000 kPa	865	1166.4
313.15 K, 9910 kPa	869.8	1191.8
313.15 K, 19720 kPa	878.3	1240.1
313.15 K, 29530 kPa	886.2	1285.3
313.15 K, 39340 kPa	893.4	1327.6
313.15 K, 49150 kPa	900.1	1367.4
313.15 K, 58960 kPa	906.4	1405
313.15 K, 68770 kPa	912.3	1440.6
313.15 K, 78580 kPa	917.9	1474.6
313.15 K, 88390 kPa	923.1	1507
313.15 K, 98200 kPa	928.1	1538
313.15 K, 108000 kPa	932.8	1567.9
313.15 K, 117800 kPa	937.3	1596.7
313.15 K, 127600 kPa	941.6	1624.5
313.15 K, 137400 kPa	945.7	1651.4
313.15 K, 147200 kPa	949.7	1677.5
313.15 K, 157100 kPa	953.5	1702.6
313.15 K, 166900 kPa	957.1	1726.9
313.15 K, 176700 kPa	960.6	1750.3
313.15 K, 186500 kPa	964	1772.6
313.15 K, 196300 kPa	967.2	1793.6
333.15 K, 100 kPa	840.3	1068.8
333.15 K, 5000 kPa	847.1	1097.1
333.15 K, 9910 kPa	851.9	1124.4
333.15 K, 19720 kPa	861.5	1176
333.15 K, 29530 kPa	870.3	1224
333.15 K, 39340 kPa	878.3	1268.8
333.15 K, 49150 kPa	885.7	1310.8
333.15 K, 58960 kPa	892.6	1350.4
333.15 K, 68770 kPa	899	1387.7
333.15 K, 78580 kPa	905	1423.2
333.15 K, 88390 kPa	910.7	1457
333.15 K, 98200 kPa	916	1489.4
333.15 K, 108000 kPa	921.1	1520.4
333.15 K, 117800 kPa	925.9	1550.3
333.15 K, 127600 kPa	930.4	1579.1
333.15 K, 137400 kPa	934.8	1607
333.15 K, 147200 kPa	939	1633.9
333.15 K, 157100 kPa	943	1659.9
333.15 K, 166900 kPa	946.8	1684.9
333.15 K, 176700 kPa	950.5	1708.9
333.15 K, 186500 kPa	954	1731.8
333.15 K, 196300 kPa	957.4	1753.5
353.15 K, 100 kPa	821.3	995
353.15 K, 5000 kPa	828.1	1026.2
353.15 K, 9910 kPa	833.7	1055.4
353.15 K, 19720 kPa	844.5	1110.7
353.15 K, 29530 kPa	854.3	1162
353.15 K, 39340 kPa	863.1	1209.8
353.15 K, 49150 kPa	871.2	1254.5
353.15 K, 58960 kPa	878.7	1296.3
353.15 K, 68770 kPa	885.6	1335.8
353.15 K, 78580 kPa	892.1	1373
353.15 K, 88390 kPa	898.2	1408.3
353.15 K, 98200 kPa	903.8	1441.9
353.15 K, 108000 kPa	909.2	1474
353.15 K, 117800 kPa	914.3	1504.7
353.15 K, 127600 kPa	919.1	1534.3
353.15 K, 137400 kPa	923.7	1562.7
353.15 K, 147200 kPa	928.1	1590.1
353.15 K, 157100 kPa	932.3	1616.4
353.15 K, 166900 kPa	936.3	1641.8
353.15 K, 176700 kPa	940.1	1666.1
353.15 K, 186500 kPa	943.8	1689.4
353.15 K, 196300 kPa	947.4	1711.4
373.15 K, 100 kPa	802.2	922.9
373.15 K, 5000 kPa	809.3	957
373.15 K, 9910 kPa	815.2	989.6
373.15 K, 19720 kPa	827.4	1050.4
373.15 K, 29530 kPa	838.3	1105.8
373.15 K, 39340 kPa	848	1156.5
373.15 K, 49150 kPa	856.9	1203.2
373.15 K, 58960 kPa	865	1246.3
373.15 K, 68770 kPa	872.5	1286.9
373.15 K, 78580 kPa	879.4	1324.8
373.15 K, 88390 kPa	885.9	1360.8
373.15 K, 98200 kPa	891.9	1395.1
373.15 K, 108000 kPa	897.6	1427.9
373.15 K, 117800 kPa	903	1459.6
373.15 K, 127600 kPa	908.1	1490.1
373.15 K, 137400 kPa	912.9	1519.6
373.15 K, 147200 kPa	917.5	1548.1
373.15 K, 157100 kPa	921.9	1575.5
373.15 K, 166900 kPa	926.1	1601.7
373.15 K, 176700 kPa	930.1	1626.5
373.15 K, 186500 kPa	934	1649.5
373.15 K, 196300 kPa	937.7	1670.6
393.15 K, 100 kPa	780.7	853.3
393.15 K, 5000 kPa	789.2	893.8
393.15 K, 9910 kPa	796.7	928.6
393.15 K, 19720 kPa	810.5	993.2
393.15 K, 29530 kPa	822.6	1051.8
393.15 K, 39340 kPa	833.3	1105.2
393.15 K, 49150 kPa	843	1154.2
393.15 K, 58960 kPa	851.8	1199.4
393.15 K, 68770 kPa	859.8	1241.4
393.15 K, 78580 kPa	867.2	1280.8
393.15 K, 88390 kPa	874.1	1318
393.15 K, 98200 kPa	880.6	1353.3
393.15 K, 108000 kPa	886.6	1387.2
393.15 K, 117800 kPa	892.3	1419.7
393.15 K, 127600 kPa	897.6	1451.2
393.15 K, 137400 kPa	902.7	1481.6
393.15 K, 147200 kPa	907.5	1511.1
393.15 K, 157100 kPa	912.1	1539.5
393.15 K, 166900 kPa	916.4	1566.9
393.15 K, 176700 kPa	920.6	1592.8
393.15 K, 186500 kPa	924.6	1617.2
393.15 K, 196300 kPa	928.4	1639.7
413.15 K, 100 kPa	759.1	784
413.15 K, 5000 kPa	769.6	829.4
413.15 K, 9910 kPa	777.6	867.7
413.15 K, 19720 kPa	793.3	938.1
413.15 K, 29530 kPa	806.8	1001.1
413.15 K, 39340 kPa	818.6	1057.7
413.15 K, 49150 kPa	829.2	1109
413.15 K, 58960 kPa	838.7	1155.8
413.15 K, 68770 kPa	847.4	1198.9
413.15 K, 78580 kPa	855.3	1239.1
413.15 K, 88390 kPa	862.7	1276.9
413.15 K, 98200 kPa	869.5	1312.8
413.15 K, 108000 kPa	875.8	1347.4
413.15 K, 117800 kPa	881.8	1380.6
413.15 K, 127600 kPa	887.4	1413
413.15 K, 137400 kPa	892.7	1444.5
413.15 K, 147200 kPa	897.8	1475.2
413.15 K, 157100 kPa	902.5	1504.9
413.15 K, 166900 kPa	907.1	1533.7
413.15 K, 176700 kPa	911.4	1560.9
413.15 K, 186500 kPa	915.6	1586.4
413.15 K, 196300 kPa	919.5	1609.7
